Patent US10441663B2, “Methods for treating cancer” (Bicycle Therapeutics Limited, priority 2016, dated 2019)
*1 amine or outer side, *2 acyl side, *3 side chain or, on linkers, in order; H or OH if unused. Where a SMILES comes first, the peptide text is derived from it. Bridges are numbered along the chain shown (N, C = ends). [ ]: non-standard residue; d: D form. The star is where a group is joined. X1 = COc1cc2cc(c1Cl)N(C)C(=O)C[C@H](OC(=O)[C@H](C)N(C)C(=O)CCSSC(C)CCC(=O)*)[C@]1(C)O[C@H]1[C@H](C)[C@@H]1C[C@@](O)(NC(=O)O1)[C@H](OC)/C=C/C=C(\C)C2; 1Nal = N[C@@H](Cc1cccc2ccccc12)C(=O)O; TBMB = c1c(C[*:1])cc(C[*:3])cc1C[*:2]; Tle = CC(C)(C)[C@H](N)C(=O)O; βAla = NCCC(=O)O; Sar = CNCC(=O)O

Tests used:
HT1080 xenograft = test: In vivo efficacy of BT1718 in HT1080 xenograft; parameters: species or system Mus Musculus; key to Best response at 10 mg/kg: CR complete response; PR partial response
Experimental: The objective of this study was to evaluate the in vivo anti-tumor efficacy of BT1718in treatment of HT1080, NCI-H292, NCI-H1975, MDA-MB-231, HCC1806, RPMI2650, HCT-15, HT-29 and SNU-16 xenograft in BALB/c nude mice.
The HT1080, NCI-H292, NCI-H1975, MDA-MB-231, HCC1806, RPMI2650, HCT-15, HT-29 and SNU-16 tumor cells were maintained in vitro as a monolayer culture in medium supplemented with 10% heat inactivated fetal bovine serum at 37° C. in an […]. The tumor cells will be routinely subcultured twice weekly by trypsin-EDTA treatment. The cells growing in an exponential growth phase will be harvested and counted for tumor inoculation.
Mouse was inoculated subcutaneously at the right flank with tumor cells for tumor development. The animals were randomized and treatment was started when the average tumor reaches certain volume for the efficacy study, the inoculating cell amounts and starting tumor size were shown as below in Table 9. The test article administration and the animal numbers in each group were shown in the experimental design in Table 10.
All the procedures related to animal handling, care and the treatment in the study were performed according to the guidelines of the Association for Assessment and Accreditation of Laboratory Animal Care (AAALAC). At the time of routine monitoring, the animals were daily checked for any effects of tumor growth and treatments on normal behavior such as mobility, food and water consumption (by looking only), body weight gain/loss (body weights were measured every day), eye/hair matting and any other abnormal effect as stated in the protocol. Death and observed clinical signs were recorded on the basis of the numbers of animals within each subset.
The major endpoint was to see if the tumor growth could be delayed or mice could be cured. Tumor size was measured three times weekly in two dimensions using a caliper, and the volume was expressed in mm^3 using the formula: V=0.5 a×b^2 where a and b are the long and short diameters of the tumor, respectively. The tumor size was then used for calculations of T/C value. The T/C value (in percent) is an indication of antitumor effectiveness; T and C are the mean volumes of the treated and control groups, respectively, on a given day.
TGI was calculated for each group using the formula: TGI (%)=[1−(Ti−T0)/(Vi−V0)]×100; Ti is the average tumor volume of a treatment group on a given day, T0 is the average tumor volume of the treatment group on the day of treatment start, Vi is the average tumor volume of the vehicle control group on the same day with Ti, and V0 is the average tumor volume of the vehicle group on the day of treatment start.
Summary statistics, including mean and the standard error of the mean (SEM), are provided for the tumor volume of each group at each time point.
Statistical analysis of difference in tumor volume among the groups was conducted on the data obtained at the best therapeutic time point after the final dose.
A one-way ANOVA was performed to compare tumor volume among groups, and when a significant F-statistics (a ratio of treatment variance to the error variance) was obtained, comparisons between groups were carried out with Games-Howell test. All data were analyzed using Prism. P<0.05 was considered to be statistically significant.

[1] = Preliminary metabolism studies; format: in vivo
Source text: Efficacy in this model was reduced in the conjugates containing the least cleavable linkers.

## COc1cc2cc(c1Cl)N(C)C(=O)C[C@H](OC(=O)[C@H](C)N(C)C(=O)CCSSC(C)CCC(=O)NCCC(=O)N(C)CC(=O)N(C)CC(=O)N(C)CC(=O)N(C)CC(=O)N(C)CC(=O)N(C)CC(=O)N(C)CC(=O)N(C)CC(=O)N(C)CC(=O)N(C)CC(=O)N[C@@H](C)C(=O)N[C@H]1CSCc3cc4cc(c3)CSC[C@H](NC(=O)[C@@H](C)NC(=O)[C@H](Cc3cccc5ccccc35)NC(=O)[C@H](CCC(=O)O)NC(=O)[C@H](CC(N)=O)NC(=O)[C@@H](C)NC1=O)C(=O)N[C@@H](CCC(=O)O)C(=O)N[C@@H](CC(=O)O)C(=O)N[C@@H](Cc1ccccc1)C(=O)N[C@@H](Cc1ccc(O)cc1)C(=O)N[C@@H](CC(=O)O)C(=O)N[C@@H](C(C)(C)C)C(=O)N[C@H](C(N)=O)CSC4)[C@]1(C)O[C@H]1[C@H](C)[C@@H]1C[C@@](O)(NC(=O)O1)[C@H](OC)/C=C/C=C(\C)C2 (some centres unmarked) [BT1718] ({X1-βAla}-[Sar][Sar][Sar][Sar][Sar][Sar][Sar][Sar][Sar][Sar]AC[dA]NE[1Nal][dA]CEDFYD[Tle]C-NH2; linker 12-18-25 via TBMB (inferred))
HT1080 xenograft; 3 mpk qw, day 7
  Tumor Volume: 218 ± 149 mm^3
HT1080 xenograft; 3 mpk qw, day 9
  Body Weight: 21.3 ± 0.7 g
  Tumor Volume: 266 ± 142 mm^3
HT1080 xenograft; 3 mpk qw, day 11
  Body Weight: 21.4 ± 0.5 g
  Tumor Volume: 254 ± 125 mm^3
HT1080 xenograft; 3 mpk qw, day 14
  Body Weight: 21.0 ± 0.6 g
  Tumor Volume: 306 ± 119 mm^3
HT1080 xenograft; 10 mpk biw, day 0
  Body Weight: 22.5 ± 1.0 g
  Tumor Volume: 180 ± 21 mm^3
HT1080 xenograft; 10 mpk biw, day 2
  Body Weight: 21.8 ± 1.2 g
  Tumor Volume: 182 ± 41 mm^3
HT1080 xenograft; 10 mpk biw, day 4
  Body Weight: 21.8 ± 1.1 g
  Tumor Volume: 58 ± 14 mm^3
HT1080 xenograft; 10 mpk biw, day 7
  Body Weight: 22.7 ± 0.9 g
  Tumor Volume: 32 ± 7 mm^3
HT1080 xenograft; 10 mpk biw, day 9
  Body Weight: 22.1 ± 0.9 g
  Tumor Volume: 27 ± 14 mm^3
HT1080 xenograft; 10 mpk biw, day 11
  Body Weight: 22 ± 1.1 g
  Tumor Volume: 26 ± 13 mm^3
HT1080 xenograft; 10 mpk biw, day 14
  Body Weight: 22.6 ± 1.0 g
  Tumor Volume: 20 ± 11 mm^3
HT1080 xenograft; 10 mpk qw, day 0
  Body Weight: 22.6 ± 1.2 g
  Tumor Volume: 179 ± 14 mm^3
HT1080 xenograft; 10 mpk qw, day 2
  Body Weight: 21.1 ± 1.2 g
  Tumor Volume: 146 ± 19 mm^3
HT1080 xenograft; 10 mpk qw, day 4
  Body Weight: 22.1 ± 1.2 g
  Tumor Volume: 35 ± 4 mm^3
HT1080 xenograft; 10 mpk qw, day 7
  Body Weight: 23.2 ± 1.0 g
  Tumor Volume: 25 ± 3 mm^3
HT1080 xenograft; 10 mpk qw, day 9
  Body Weight: 22.7 ± 1.1 g
  Tumor Volume: 15 ± 8 mm^3
HT1080 xenograft; 10 mpk qw, day 11
  Body Weight: 23.8 ± 1.3 g
  Tumor Volume: 5 ± 5 mm^3
HT1080 xenograft; 10 mpk qw, day 14
  Body Weight: 24.8 ± 1.5 g
  Tumor Volume: 5 ± 5 mm^3
HT1080 xenograft; HT1080, 10 mg/kg
  Best response at 10 mg/kg: CR
HT1080 xenograft; HT1080, 1 mpk, biw, day 14
  TGI: 26.5%
  Tumor Volume: 1650 ± 218 mm^3
HT1080 xenograft; HT1080, 1 mpk, qw, day 14
  TGI: 18.4%
  Tumor Volume: 1814 ± 320 mm^3
HT1080 xenograft; HT1080, 3 mpk, biw, day 14
  TGI: 108.7%
  Tumor Volume: 3 ± 3 mm^3
HT1080 xenograft; HT1080, 3 mpk, qw, day 14
  TGI: 93.7%
  Tumor Volume: 306 ± 119 mm^3
HT1080 xenograft; HT1080, 10 mpk, biw, day 14
  TGI: 108.0%
  Tumor Volume: 20 ± 11 mm^3
HT1080 xenograft; HT1080, 10 mpk, qw, day 14
  TGI: 108.7%
  Tumor Volume: 5 ± 5 mm^3
HT1080 xenograft; HT1080, dose leading to tumor-stasis
  Minimally Effective Dose IV BIW: <3 mg/kg
HT1080 xenograft; after 2 weeks, 3 mg/kg biw, 10 mg/kg qw and 10 mg/kg biw
  tumor response: completely regressed
HT1080 xenograft; previously 3 mg/kg biw
  animals with re-growth to 150 mm3 following cessation of dosing: 3/3
HT1080 xenograft; previously 10 mg/kg qw
  animals with re-growth to 150 mm3 following cessation of dosing: 1/3
[1]
  route of excretion: excreted mainly through the kidney in urine
